Data published in patent US20260256792A1, “TREATMENT OF CHRONIC SPONTANEOUS URTICARIA BY ADMINISTERING (R)-2-[3-[4-AMINO-3-(2-FLUORO-4-PHENOXY-PHENYL)PYRAZOLO[3,4-D]PYRIMIDIN-1-YL]PIPERIDINE-1-CARBONYL]-4-METHYL-4-[4-(OXETAN-3-YL)PIPERAZIN-1-YL]PENT-2-ENENITRILE” (priority 2023, published 2026).

System: angioedema in CSU patients
Test: Phase 2 CSU study: angioedema activity score over 7 days (AAS7)
Type: in vivo, human
Set-up: AAS7, Median / AAS7 Change from baseline, Median: scale not given here
From the text: The study comprises a 12 week, randomized, double-blind, placebo-controlled, multi-center, dose-ranging efficacy and safety phase, followed by a 40 week open label extension (OLE) phase (see FIG. 1). The study consists of three phases and an optional OLE phase. […] The weekly angioedema activity score (AAS7) was proposed as a tertiary endpoint. […] Patients were to complete the AAS using the e-diary. The e-diary was to be used once daily on the same time of each day recording of participant's answers to the angioedema activity score over 7 days (AAS7) questionnaire.

[1] = Patients with Prior Omalizumab Use, 400 mg TID, Week 1
[2] = Patients with Prior Omalizumab Use, 400 mg TID, Week 2
[3] = Patients with Prior Omalizumab Use, 400 mg TID, Week 3
[4] = Patients with Prior Omalizumab Use, 400 mg TID, Week 4
[5] = Patients with Prior Omalizumab Use, 400 mg TID, Week 5
[6] = Patients with Prior Omalizumab Use, 400 mg TID, Week 6
[7] = Patients with Prior Omalizumab Use, 400 mg TID, Week 7
[8] = Patients with Prior Omalizumab Use, 400 mg TID, Week 8
[9] = Week 8, 400 mg BID, Incomplete Responders with angioedema at baseline, double-blind period
[10] = Week 8, 400 mg QPM, Incomplete Responders with angioedema at baseline, double-blind period
[11] = Week 8, 400 mg TID, Incomplete Responders with angioedema at baseline, double-blind period
[12] = Week 9, 400 mg BID, Incomplete Responders with angioedema at baseline, double-blind period
[13] = Week 9, 400 mg QPM, Incomplete Responders with angioedema at baseline, double-blind period
[14] = Week 9, 400 mg TID, Incomplete Responders with angioedema at baseline, double-blind period
[15] = Week 10, 400 mg BID, Incomplete Responders with angioedema at baseline, double-blind period
[16] = Week 10, 400 mg QPM, Incomplete Responders with angioedema at baseline, double-blind period
[17] = Week 10, 400 mg TID, Incomplete Responders with angioedema at baseline, double-blind period
[18] = Week 11, 400 mg BID, Incomplete Responders with angioedema at baseline, double-blind period
[19] = Week 11, 400 mg QPM, Incomplete Responders with angioedema at baseline, double-blind period
[20] = Week 11, 400 mg TID, Incomplete Responders with angioedema at baseline, double-blind period
[21] = Week 12, 400 mg BID, Incomplete Responders with angioedema at baseline, double-blind period
[22] = Week 12, 400 mg QPM, Incomplete Responders with angioedema at baseline, double-blind period
[23] = Week 12, 400 mg TID, Incomplete Responders with angioedema at baseline, double-blind period

## CC(C)(C=C(C#N)C(=O)N1CCC[C@@H](n2nc(-c3ccc(Oc4ccccc4)cc3F)c3c(N)ncnc32)C1)N1CCN(C2COC2)CC1 [rilzabrutinib, (R)-2-[3-[4-amino-3-(2-fluoro-4-phenoxy-phenyl)pyrazolo[3,4-d]pyrimidin-1-yl]piperidine-1-carbonyl]-4-methyl-4-[4-(oxetan-3-yl)piperazin-1-yl]pent-2-enenitrile]
Patients with Prior Omalizumab Use, 400 mg QPM, Week 8
  AAS7 Change from baseline, Median: −50.00
[1]
  AAS7, Mean (SD): 6.33 (7.77)
  AAS7, Median: 4.00
  AAS7 Change from baseline, Median: −25.83
  AAS7 Percent change from baseline, Mean (SD): −79.91 (18.61) %
  AAS7 Percent change from baseline, Median: −76.47%
[2]
  AAS7, Mean (SD): 4.00 (6.93)
  AAS7, Median: 0.00
  AAS7 Change from baseline, Mean (SD): −27.28 (19.44)
  AAS7 Change from baseline, Median: −36.00
  AAS7 Percent change from baseline, Mean (SD): −76.47 (40.75) %
  AAS7 Percent change from baseline, Median: −100.00%
[3]
  AAS7, Mean (SD): 7.00 (7.00)
  AAS7, Median: 7.00
  AAS7 Change from baseline, Mean (SD): −24.28 (18.46)
  AAS7 Change from baseline, Median: −33.83
  AAS7 Percent change from baseline, Mean (SD): −66.83 (43.45) %
  AAS7 Percent change from baseline, Median: −82.86%
[4]
  AAS7, Mean (SD): 7.11 (6.30)
  AAS7, Median: 9.33
  AAS7 Change from baseline, Mean (SD): −24.17 (16.75)
  AAS7 Change from baseline, Median: −31.50
  AAS7 Percent change from baseline, Mean (SD): −68.85 (36.02) %
  AAS7 Percent change from baseline, Median: −77.14%
[5]
  AAS7, Median: 19.83
  AAS7 Change from baseline, Mean (SD): −18.00 (19.67)
  AAS7 Change from baseline, Median: −21.00
  AAS7 Percent change from baseline, Mean (SD): −44.59 (59.12) %
  AAS7 Percent change from baseline, Median: −51.43%
[6]
  AAS7, Mean (SD): 7.00 (8.19)
  AAS7, Median: 5.00
  AAS7 Change from baseline, Mean (SD): −24.28 (20.16)
  AAS7 Change from baseline, Median: −35.83
  AAS7 Percent change from baseline, Mean (SD): −64.55 (51.17) %
  AAS7 Percent change from baseline, Median: −87.76%
[7]
  AAS7, Mean (SD): 9.72 (16.84)
  AAS7, Median: 0.00
  AAS7 Change from baseline, Mean (SD): −21.56 (12.79)
  AAS7 Change from baseline, Median: −17.00
  AAS7 Percent change from baseline, Mean (SD): −76.19 (41.24) %
  AAS7 Percent change from baseline, Median: −100.00%
[8]
  AAS7, Mean (SD): 4.67 (7.23)
  AAS7, Median: 1.00
  AAS7 Change from baseline, Mean (SD): −26.61 (19.68)
  AAS7 Change from baseline, Median: −36.00
[9]
  AAS7 Percent change from baseline, Mean (SD): −100.00 (0.00)
  AAS7 Percent change from baseline, Median: −100.00
[10]
  AAS7 Percent change from baseline, Mean (SD): −73.53 (NC)
  AAS7 Percent change from baseline, Median: −73.53
[11]
  AAS7 Percent change from baseline, Mean (SD): −73.69 (43.46)
  AAS7 Percent change from baseline, Median: −97.55
[12]
  AAS7, Mean (SD): 0.00 (0.00)
  AAS7, Median: 0.00
  AAS7 Change from baseline, Mean (SD): −39.50 (3.54)
  AAS7 Change from baseline, Median: −39.50
  AAS7 Percent change from baseline, Mean (SD): −100.00 (0.00)
  AAS7 Percent change from baseline, Median: −100.00
[13]
  AAS7, Mean (SD): 10.00 (NC)
  AAS7 Change from baseline, Mean (SD): −58.00 (NC)
  AAS7 Change from baseline, Median: −58.00
  AAS7 Percent change from baseline, Mean (SD): −85.29 (NC)
  AAS7 Percent change from baseline, Median: −85.29
[14]
  AAS7, Mean (SD): 4.39 (6.62)
  AAS7, Median: 1.17
  AAS7 Change from baseline, Mean (SD): −26.89 (19.04)
  AAS7 Change from baseline, Median: −36.00
  AAS7 Percent change from baseline, Mean (SD): −75.52 (39.95)
  AAS7 Percent change from baseline, Median: −97.14
[15]
  AAS7, Mean (SD): 0.00 (0.00)
  AAS7, Median: 0.00
  AAS7 Change from baseline, Mean (SD): −39.50 (3.54)
  AAS7 Change from baseline, Median: −39.50
  AAS7 Percent change from baseline, Mean (SD): −100.00 (0.00)
  AAS7 Percent change from baseline, Median: −100.00
[16]
  AAS7, Mean (SD): 0.00 (NC)
  AAS7, Median: 0.00
  AAS7 Change from baseline, Mean (SD): −68.00 (NC)
  AAS7 Change from baseline, Median: −68.00
  AAS7 Percent change from baseline, Mean (SD): −100.00 (NC)
  AAS7 Percent change from baseline, Median: −100.00
[17]
  AAS7, Mean (SD): 9.00 (10.15)
  AAS7, Median: 7.00
  AAS7 Change from baseline, Mean (SD): −22.28 (21.92)
  AAS7 Change from baseline, Median: −33.83
  AAS7 Percent change from baseline, Mean (SD): −55.07 (63.56)
  AAS7 Percent change from baseline, Median: −82.86
[18]
  AAS7, Mean (SD): 0.00 (0.00)
  AAS7, Median: 0.00
  AAS7 Change from baseline, Mean (SD): −39.50 (3.54)
  AAS7 Change from baseline, Median: −39.50
  AAS7 Percent change from baseline, Mean (SD): −100.00 (0.00)
  AAS7 Percent change from baseline, Median: −100.00
[19]
  AAS7, Mean (SD): 0.00 (NC)
  AAS7, Median: 0.00
  AAS7 Change from baseline, Mean (SD): −68.00 (NC)
  AAS7 Change from baseline, Median: −68.00
  AAS7 Percent change from baseline, Mean (SD): −100.00 (NC)
  AAS7 Percent change from baseline, Median: −100.00
[20]
  AAS7, Median: 0.00
  AAS7 Change from baseline, Mean (SD): −24.61 (24.03)
  AAS7 Change from baseline, Median: −36.00
  AAS7 Percent change from baseline, Mean (SD): −60.78 (67.92)
  AAS7 Percent change from baseline, Median: −100.00
[21]
  AAS7, Mean (SD): 0.00 (0.00)
  AAS7, Median: 0.00
  AAS7 Change from baseline, Mean (SD): −39.50 (3.54)
  AAS7 Change from baseline, Median: −39.50
  AAS7 Percent change from baseline, Mean (SD): −100.00 (0.00)
  AAS7 Percent change from baseline, Median: −100.00
[22]
  AAS7, Mean (SD): 5.00 (NC)
  AAS7, Median: 5.00
  AAS7 Change from baseline, Mean (SD): −63.00 (NC)
  AAS7 Change from baseline, Median: −63.00
  AAS7 Percent change from baseline, Mean (SD): −92.65 (NC)
  AAS7 Percent change from baseline, Median: −92.65
[23]
  AAS7 Change from baseline, Mean (SD): −16.50 (27.58)
  AAS7 Change from baseline, Median: −16.50
  AAS7 Percent change from baseline, Mean (SD): −41.18 (83.19)
  AAS7 Percent change from baseline, Median: −41.18
